According to PubChem BioAssay AID720616 (Broad Institute, 2013):

System: U-251 glioblastoma viability, CellTiter-Glo ATP luminescence
Experiment: cytotoxicity in U-251 glioma cells – cell-based, CellTiter-Glo ATP luminescence, several timepoints, dry powder, mechanism study for HRAS target identification, late-stage follow-up (AID 720616)

SMILES	AC50 (measured here: 8 h treatment) [nM]	AC50 (measured here: 24 h treatment) [nM]	AC50 (measured here: 48 h treatment) [nM]
COc1ccc(N(C(=O)CCl)C(C(=O)NCCc2ccccc2)c2cccs2)cc1Cl (centres undefined)	734	709	1380
CC(C)(C)OC(=O)NCCOCCOCCOc1ccc(N(C(=O)CCl)C(C(=O)NCCc2ccccc2)c2cccs2)cc1Cl (centres undefined)	912	1220	2210
COC(=O)c1ccc([C@@H]2c3[nH]c4ccccc4c3C[C@@H](C(=O)OC)N2C(=O)CCl)cc1	1100	856	1250
C#CCCCC(=O)NCCOCCOCCOc1ccc(N(C(=O)CCl)C(C(=O)NCCc2ccccc2)c2cccs2)cc1Cl (centres undefined)	7550	4090	10200
Cc1onc(C(=O)N2CCN(C(c3ccc(Cl)cc3)c3ccc(Cl)cc3)CC2)c1[N+](=O)[O-]		> 70000	> 70000
